Laboratory results as given in the NIST ThermoML archive (doi:10.1016/j.fluid.2012.08.003).
Where “and” joins values, the source holds several entries; their conditions need not be identical. Equal entries are not always repeated.

Conditions: Liquid, Transpiration method

CCCCCCCOC=O [heptyl methanoate]
Conditions | vapor or sublimation pressure
276.1 K | 0.0215 kPa
277.6 K | 0.02468 kPa
278.6 K | 0.02656 kPa
280.4 K | 0.03187 kPa
283.3 K | 0.04168 kPa
288.3 K | 0.06125 kPa
293.2 K | 0.0889 kPa and 0.08971 kPa
293.3 K | 0.08835 kPa
298.3 K | 0.13 kPa and 0.1304 kPa
303.3 K | 0.183 kPa
308.2 K | 0.257 kPa
311 K | 0.3176 kPa
313.3 K | 0.3549 kPa
316.4 K | 0.4359 kPa

CCCCCCOC=O [hexyl methanoate]
Conditions | vapor or sublimation pressure
275.4 K | 0.07241 kPa
278.5 K | 0.09094 kPa
283.3 K | 0.1319 kPa
288.2 K | 0.1935 kPa
293.3 K | 0.2694 kPa
293.4 K | 0.2753 kPa
298.4 K | 0.4056 kPa and 0.4085 kPa
303.2 K | 0.5577 kPa
303.3 K | 0.5448 kPa
308.3 K | 0.7473 kPa and 0.7588 kPa
313.4 K | 1.016 kPa and 1.013 kPa

CCCCCCOC(=O)CC [hexyl propanoate]
Conditions | vapor or sublimation pressure
278.3 K | 0.01764 kPa
280.7 K | 0.0221 kPa
283.4 K | 0.02827 kPa
285.8 K | 0.03417 kPa
288.2 K | 0.04354 kPa
298.4 K | 0.09932 kPa
303.2 K | 0.1369 kPa and 0.1363 kPa
308.2 K | 0.2024 kPa
313.3 K | 0.2793 kPa
318.5 K | 0.3993 kPa
323.4 K | 0.5422 kPa
326.4 K | 0.6804 kPa
328.4 K | 0.7646 kPa
330.6 K | 0.8602 kPa
333.3 K | 0.9961 kPa

CCCCCCCCOC=O [octyl methanoate]
Conditions | vapor or sublimation pressure
283.3 K | 0.01298 kPa
285.7 K | 0.01585 kPa
288.2 K | 0.01973 kPa
290.8 K | 0.02392 kPa
293.3 K | 0.02964 kPa
298.4 K | 0.04462 kPa
303.2 K | 0.0622 kPa and 0.06388 kPa
308.2 K | 0.09465 kPa
313.5 K | 0.1368 kPa
318.5 K | 0.1894 kPa
323.5 K | 0.2656 kPa
328.4 K | 0.3665 kPa
331.3 K | 0.4318 kPa
333.4 K | 0.4943 kPa
335.3 K | 0.5488 kPa
338.3 K | 0.6635 kPa

CCCCCCCCOC(=O)CC [octyl propanoate]
Conditions | vapor or sublimation pressure [kPa]
293.3 K | 0.00465
295.7 K | 0.00575
298.4 K | 0.00732
300.3 K | 0.00883
303.3 K | 0.01129
308.3 K | 0.0173
313.4 K | 0.02656
318.5 K | 0.0387
323.4 K | 0.0541
328.5 K | 0.08043
333.3 K | 0.1125
338.3 K | 0.155
340.3 K | 0.176
343 K | 0.2098
346.4 K | 0.2681
348.4 K | 0.2952

CCCCCOC(C)=O [pentyl ethanoate]
Conditions | vapor or sublimation pressure
274.2 K | 0.08539 kPa
274.3 K | 0.08709 kPa
275.6 K | 0.0953 kPa and 0.09555 kPa
278.2 K | 0.1145 kPa
280.8 K | 0.1396 kPa
283.2 K | 0.1683 kPa
288.2 K | 0.2413 kPa
293.3 K | 0.343 kPa
298.4 K | 0.4754 kPa
303.3 K | 0.658 kPa
306.7 K | 0.807 kPa
308.2 K | 0.9035 kPa
310.6 K | 1.031 kPa
313.4 K | 1.219 kPa

CCCCCOC=O [pentyl methanoate]
Conditions | vapor or sublimation pressure
274.2 K | 0.2283 kPa
274.3 K | 0.2293 kPa
275.7 K | 0.2518 kPa
278.3 K | 0.3006 kPa and 0.3046 kPa
281 K | 0.37 kPa and 0.3692 kPa
283.2 K | 0.4349 kPa
288.2 K | 0.61 kPa
293.3 K | 0.8452 kPa
298.4 K | 1.161 kPa
303.3 K | 1.571 kPa
305.6 K | 1.779 kPa
308 K | 2.045 kPa
310.7 K | 2.374 kPa
313.3 K | 2.757 kPa

CCCCCOC(=O)CC [pentyl propanoate]
Conditions | vapor or sublimation pressure [kPa]
274.1 K | 0.02995
275.5 K | 0.03342
278.3 K | 0.04139
280.9 K | 0.05087
283.4 K | 0.06315
288.3 K | 0.09403
293.3 K | 0.1374
298.4 K | 0.1984
303.3 K | 0.2789
308.2 K | 0.3925
313.4 K | 0.5328
318.5 K | 0.7195
320.7 K | 0.8423
323.4 K | 0.9568
325.6 K | 1.098
328.4 K | 1.293
